Assay results taken from patent publication US20090029992A1, “SUBSTITUTED PYRAZOLE COMPOUNDS” (priority 2007, published 2009).

How the values were obtained:
[1] = molecular target: T1, N-terminal His-tagged human Src (Homo sapiens, UniProt P12931); assay: Src kinase inhibition assay (33P-ATP filter assay); type: biochemical
T1 construct: His (N); purchased Upstate USA Inc, 706 Forest Street, Charlottesville, Va
Procedure: (§1) Compounds were assayed for Src kinase inhibitory activity using N-terminal His-tagged human Src (Upstate USA Inc, 706 Forest Street, Charlottesville, Va.). Serial dilutions of compound were assayed in a final reaction volume of 25 μL by incubating a solution of the above Src kinase (5-10 mU), 8 mM MOPS (3-(N-morpholino) propanesulfonic acid) pH 7.0, 0.2 mM EDTA (ethylenediamine tetracetic acid), 250 μM amino acid sequence KVEKIGEGTYGVVYK (Upstate USA Inc, 706 Forest Street, Charlottesville, Va.), and 10 mM magnesium acetate and [γ-^33P-ATP] (specific activity of about 500 cpm/μmol, concentration as required). The reaction was initiated by the addition of the magnesium acetate and [γ-^33P-ATP] mixture. After incubation for 40 minutes at room temperature, the reaction was stopped by the addition of 5 μL of a 3% phosphoric acid solution. A 10 μL aliquote of the reaction was then spotted onto a P30 filtermat (PerkinElmer, Wellesley, Mass.) and washed three times for five minutes in 75 mM phosphoric acid and once in methanol prior to drying and scintillation counting. Inhibition of Src activity was determined by comparison to assays that contained no inhibitor.

[2] = molecular target: T2, N-terminal His6-tagged recombinant human KDR, residues 790-end (Homo sapiens, UniProt P35968); assay: KDR kinase inhibition assay (33P-ATP filter assay); type: biochemical
T2 construct: recombinant human KDR, residues 790-end; His6 (N); purchased Upstate USA Inc, 706 Forest Street, Charlottesville, Va
Procedure: as §1, with “for KDR” for “for Src”, “N-terminal His6-tagged recombinant” for “N-terminal His-tagged”, “human KDR, residues 790-end” for “human Src”, “above KDR” for “above Src”, “acid), 0.33 mg/mL myelin basic protein” for “acid), 250 μM amino acid sequence KVEKIGEGTYGVVYK”, “of KDR” for “of Src”

HCT116 cells = assay: Whole cell cytotoxicity assay, Sulforhodamine B; type: cell-based; conditions: Homo sapiens, HCT-116, HCT116, 96 hours incubation, SRB; for IC50: read-out: IC50 values in this assay (HCT116 cell growth); for GI50: read-out: GI50 HCT116 cell growth
Procedure: Human tumor-derived cell lines, HCT116 or MCF7 (ATCC) were plated in a 96 well plate in DMEM containing 10% fetal bovine serum and 2 mM L-glutamine at a density of 500 HCT116 cells or 1,000 MCF7 cells per well and incubated at 37° C., 5% CO2, for 24 hours prior to the addition of experimental compounds. Compounds were added using the dilution series indicated to duplicate plates and the cells were incubated in media plus compound for 96 hours. An additional plate was fixed in 10% TCA at the time of the addition of compound to provide a measurement of the cell population at time zero, the time of drug addition. Following the 96 hour incubation, cells were fixed in situ by gently aspirating off the culture media and then adding 50 ul of ice cold 10% TCA per well and incubation at 4° C. for 60 minutes. The plates were washed with tap water five times and allowed to air dry for 5 minute. 50 ul of a 0.4% (w/v) Sulforhodamine B solution in 1% (v/v) acetic acid was added per well and the cells were incubated for 30 minutes at room temperature. Following staining, plates were washed four times with 1% acetic acid to remove any unbound dye and then allowed to air dry for 5 minutes. The stain was solubilized with 100 ul of 10 mM Tris pH 10.5 per well and placed on an orbital rotator for 5 minutes. The absorbance was read at 570 nm. Percentage growth was calculated using the absorbance readings from the time zero plate (Tz) and the dilution series plate […] which included a column of cells grown in media without compound as a control (C) using the formulas:
[(Ti−Tz)/(C−Tz)]×100 for concentrations for which Ti>/=Tz
[(Ti−Tz)/Tz]×100 for concentrations for which Ti<Tz.
Three dose response parameters were calculated for each experimental agent. Growth inhibition of 50% (GI50) was calculated from [(Ti−Tz)/(C−Tz)]×100=50, which was the drug concentration resulting in a 50% reduction in the net protein increase (as measured by SRB staining) in control cells during the drug incubation. The drug concentration resulting in total growth inhibition (TGI) was calculated from Ti=Tz. The LC50 (concentration of drug resulting in a 50% reduction in the measured protein at the end of the drug treatment as compared to that at the beginning) indicating a net loss of cells following treatment ws calculated from [(Ti−Tz)/Tz]×100=−50. Values are calculated for each of these three parameters if the level of activity was reached; however, if the effect was not reached or was exceeded, the value for that parameter is expressed as greater or less than the maximum or minimum concentration tested.

[3] = molecular target: T3, N-terminal GST-tagged recombinant human Flt3, residues 564-end (Homo sapiens, UniProt P36888); assay: Flt3 kinase inhibition assay (33P-ATP filter assay); type: biochemical
T3 construct: recombinant human Flt3, residues 564-end; GST (N); purchased Upstate USA Inc, 706 Forest Street, Charlottesville, Va
T3 sequence (P36888 564-993 limits assumed): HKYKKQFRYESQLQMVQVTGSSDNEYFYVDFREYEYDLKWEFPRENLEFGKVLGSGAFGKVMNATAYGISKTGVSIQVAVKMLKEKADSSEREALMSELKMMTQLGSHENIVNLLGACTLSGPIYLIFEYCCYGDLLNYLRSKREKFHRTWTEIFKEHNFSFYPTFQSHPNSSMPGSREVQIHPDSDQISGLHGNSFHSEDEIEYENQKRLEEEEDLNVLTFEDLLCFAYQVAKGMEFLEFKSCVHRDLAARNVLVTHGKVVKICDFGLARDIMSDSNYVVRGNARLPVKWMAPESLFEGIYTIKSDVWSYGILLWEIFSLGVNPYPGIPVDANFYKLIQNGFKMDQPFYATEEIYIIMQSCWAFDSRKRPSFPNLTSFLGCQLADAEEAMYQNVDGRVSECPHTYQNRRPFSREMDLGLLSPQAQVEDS
Procedure: Compounds were assayed for Flt3 kinase inhibitory activity using N-terminal GST-tagged recombinant human Flt3, residues 564-end (Upstate USA Inc, 706 Forest Street, Charlottesville, Va.). Serial dilutions of compound were assayed in a final reaction volume of 25 μL by incubating a solution of the above Flt3 kinase (5-10 mU), 8 mM MOPS (3-(N-morpholino) propanesulfonic acid) pH 7.0, 0.2 mM EDTA (ethylenediamine tetracetic acid), 50 μM amino acid sequence EAIYAAPFAKKK (Upstate USA Inc, 706 Forest Street, Charlottesville, Va.), and 10 mM magnesium acetate and [γ-^33P-ATP] (specific activity of about 500 cpm/μmol, concentration as required). The reaction was initiated by the addition of the magnesium acetate and [γ-^33P-ATP] mixture. After incubation for 40 minutes at room temperature, the reaction was stopped by the addition of 5 μL of a 3% phosphoric acid solution. A 10 μL aliquote of the reaction was then spotted onto a P30 filtermat (PerkinElmer, Wellesley, Mass.) and washed three times for five minutes in 75 mM phosphoric acid and once in methanol prior to drying and scintillation counting. Inhibition of Flt3 activity was determined by comparison to assays that contained no inhibitor.

[4] = group with IC50 greater than 100 nM

T1 sequence (P12931 whole entry): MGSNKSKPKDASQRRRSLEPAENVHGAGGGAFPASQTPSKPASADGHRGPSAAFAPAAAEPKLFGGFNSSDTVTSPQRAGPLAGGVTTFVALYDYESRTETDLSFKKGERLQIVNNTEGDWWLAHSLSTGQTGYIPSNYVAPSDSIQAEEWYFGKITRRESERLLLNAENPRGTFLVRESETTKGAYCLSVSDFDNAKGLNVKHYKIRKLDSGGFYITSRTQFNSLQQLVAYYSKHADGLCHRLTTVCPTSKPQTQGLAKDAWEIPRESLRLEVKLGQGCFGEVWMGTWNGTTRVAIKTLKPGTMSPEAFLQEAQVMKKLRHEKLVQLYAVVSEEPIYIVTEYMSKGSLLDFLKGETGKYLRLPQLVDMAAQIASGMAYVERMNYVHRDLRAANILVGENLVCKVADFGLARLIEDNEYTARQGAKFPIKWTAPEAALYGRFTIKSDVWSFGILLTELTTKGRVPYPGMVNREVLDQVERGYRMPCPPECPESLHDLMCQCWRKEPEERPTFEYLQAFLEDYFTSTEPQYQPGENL
T2 sequence (P35968 790-1356 limits assumed): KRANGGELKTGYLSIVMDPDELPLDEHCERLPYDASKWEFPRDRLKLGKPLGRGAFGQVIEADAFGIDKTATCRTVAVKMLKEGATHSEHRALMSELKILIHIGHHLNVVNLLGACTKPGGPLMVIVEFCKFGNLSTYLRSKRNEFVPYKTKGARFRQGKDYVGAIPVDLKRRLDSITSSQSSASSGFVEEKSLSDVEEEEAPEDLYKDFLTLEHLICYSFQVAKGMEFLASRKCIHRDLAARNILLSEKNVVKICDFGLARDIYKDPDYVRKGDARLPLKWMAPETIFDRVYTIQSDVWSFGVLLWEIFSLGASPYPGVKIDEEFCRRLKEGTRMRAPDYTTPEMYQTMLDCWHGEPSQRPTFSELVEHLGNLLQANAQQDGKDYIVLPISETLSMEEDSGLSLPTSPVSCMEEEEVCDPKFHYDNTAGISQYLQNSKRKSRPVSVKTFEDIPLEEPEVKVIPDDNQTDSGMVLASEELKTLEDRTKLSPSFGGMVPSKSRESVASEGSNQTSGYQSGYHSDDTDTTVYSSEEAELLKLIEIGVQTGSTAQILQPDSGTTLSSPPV

| Compound | IC50 [2, 4] | IC50 ([3]; 40 minutes at room temperature) | IC50 (HCT116 cells) | also measured |
| --- | --- | --- | --- | --- |
| Cc1cccc(-c2nc(Nc3cc(C)[nH]n3)cc(NC3CCOCC3)n2)c1 [Compound 26, N^4-(5-methyl-1H-pyrazol-3-yl)-N^6-(tetrahydro-2H-pyran-4-yl)-2-m-tolylpyrimidine-4,6-diamine] | – | – | 1000 to 10000 nM | IC50 [1, 4]: ≤ 1000 nM; IC50 ([2]; 40 minutes at room temperature): ≤ 100 nM |
| Cc1cc(Nc2cc(N3CCN(C)CC3)nc(-c3ccc(S(C)(=O)=O)cc3)n2)n[nH]1 [Compound 95, N-(5-methyl-1H-pyrazol-3-yl)-6-(4-methylpiperazin-1-yl)-2-(4-(methylsulfonyl)phenyl)pyrimidin-4-amine] | – | – | – | GI50 (HCT116 cells): ≤ 1000 nM |
| Cc1cc(Nc2cc(N3CCN(C)CC3)nc(-c3cc(C(F)(F)F)cc(C(F)(F)F)c3)n2)n[nH]1 [Example 173, 2-(3,5-bis(trifluoromethyl)phenyl)-N-(5-methyl-1H-pyrazol-3-yl)-6-(4-methylpiperazin-1-yl)pyrimidin-4-amine] | – | ≤ 100 nM | – | GI50 (HCT116 cells): ≤ 1000 nM |
| CCc1ccccc1-c1nc(Nc2cc(C)[nH]n2)cc(N(C)CCOC)n1 [Example 187, 2-(2-ethylphenyl)-N^4-(2-methoxyethyl)-N^4-methyl-N^6-(5-methyl-1H-pyrazol-3-yl)pyrimidine-4,6-diamine] | ≤ 1000 nM | ≤ 100 nM | – | IC50 ([1]; 40 minutes at room temperature): ≤ 100 nM |
| Cc1cc(Nc2cc(N3CCN(C)CC3)nc(-c3c(C)cccc3C)n2)n[nH]1 [Example 194, 2-(2,6-dimethylphenyl)-N-(5-methyl-1H-pyrazol-3-yl)-6-(4-methylpiperazin-1-yl)pyrimidin-4-amine] | – | – | – | IC50 [3, 4]: ≤ 1000 nM |
| Cc1cc(Nc2cc(N(C)CCN(C)C)nc(-c3c(C)cccc3C)n2)n[nH]1 [Example 195, N^4-(2-(dimethylamino)ethyl)-2-(2,6-dimethylphenyl)-N^4-methyl-N^6-(5-methyl-1H-pyrazol-3-yl)pyrimidine-4,6-diamine] | – | – | – | IC50 [3, 4]: ≤ 1000 nM |
| Cc1cc(Nc2cc(NC3CCOCC3)nc(-c3c(C)cccc3C)n2)n[nH]1 [Example 199, 2-(2,6-dimethylphenyl)-N^4-(5-methyl-1H-pyrazol-3-yl)-N^6-(tetrahydro-2H-pyran-4-yl)pyrimidine-4,6-diamine] | – | – | – | IC50 [3, 4]: ≤ 1000 nM |
| COCCN(C)c1cc(Nc2cc(C)[nH]n2)nc(-c2cc(C)ccc2C)n1 [Example 202, 2-(2,5-dimethylphenyl)-N^4-(2-methoxyethyl)-N^4-methyl-N^6-(5-methyl-1H-pyrazol-3-yl)pyrimidine-4,6-diamine] | – | ≤ 100 nM | 1000 to 10000 nM | – |
| Cc1ccc(C)c(-c2nc(Nc3cc(C)[nH]n3)cc(N(C)CCN(C)C)n2)c1 [Example 207, N^4-(2-(dimethylamino)ethyl)-2-(2,5-dimethylphenyl)-N^4-methyl-N^6-(5-methyl-1H-pyrazol-3-yl)pyrimidine-4,6-diamine] | ≤ 1000 nM | ≤ 100 nM | – | – |

Further lines, with some results ahead:

| IC50 [2, 4] | IC50 ([3]; 40 minutes at room temperature) | Compound | IC50 (HCT116 cells) | also measured |
| --- | --- | --- | --- | --- |
| ≤ 1000 nM | – | COc1ccccc1-c1nc(Nc2cc(C)[nH]n2)cc(NC2CCOCC2)n1 [Compound 30, 2-(2-methoxyphenyl)-N^4-(5-methyl-1H-pyrazol-3-yl)-N^6-(tetrahydro-2H-pyran-4-yl)pyrimidine-4,6-diamine] | – | – |
| ≤ 1000 nM | ≤ 100 nM | COc1ccccc1-c1nc(Nc2cc(C)[nH]n2)cc(N2CCN(C)CC2)n1 [Compound 43, 2-(2-methoxyphenyl)-N-(5-methyl-1H-pyrazol-3-yl)-6-(4-methylpiperazin-1-yl)pyrimidin-4-amine] | 1000 to 10000 nM | IC50 [1, 4]: ≤ 1000 nM |
| ≤ 1000 nM | ≤ 100 nM | COc1ccccc1-c1nc(Nc2cc(C)[nH]n2)cc(N(C)CCN(C)C)n1 [Compound 56, N^4-(2-(dimethylamino)ethyl)-2-(2-methoxyphenyl)-N^4-methyl-N^6-(5-methyl-1H-pyrazol-3-yl)pyrimidine-4,6-diamine] | – | GI50 (HCT116 cells): ≤ 1000 nM |
| ≤ 1000 nM | – | COCCN(C)c1cc(Nc2cc(C)[nH]n2)nc(-c2ccccc2OC)n1 [Compound 69, N^4-(2-methoxyethyl)-2-(2-methoxyphenyl)-N^4-methyl-N^6-(5-methyl-1H-pyrazol-3-yl)pyrimidine-4,6-diamine] | 1000 to 10000 nM | IC50 [3, 4]: ≤ 1000 nM |
| – | ≤ 100 nM | COCCN(C)c1cc(Nc2cc(C)[nH]n2)nc(-c2ccc(C(C)(C)C)cc2)n1 [Compound 115, 2-(4-tert-butylphenyl)-N^4-(2-methoxyethyl)-N^4-methyl-N^6-(5-methyl-1H-pyrazol-3-yl)pyrimidine-4,6-diamine] | 1000 to 10000 nM | IC50 [1, 4]: ≤ 1000 nM |
| ≤ 1000 nM | ≤ 100 nM | Cc1cc(Nc2cc(N(C)CCN(C)C)nc(-c3cccc4c3OCCO4)n2)n[nH]1 [Example 143, 2-(2,3-dihydrobenzo[b][1,4]dioxin-5-yl)-N^4-(2-(dimethylamino)ethyl)-N^4-methyl-N^6-(5-methyl-1H-pyrazol-3-yl)pyrimidine-4,6-diamine] | 1000 to 10000 nM | – |
